This note sets out measurements from patent US20060241066A1, “Decoy composition for treating and preventing inflammatory disease” (priority 2002, published 2006).

Entries after “also recorded” stand apart in the source; their conditions may differ.

Data set [1] has as its system type II collagen arthritis model in apes. As to the kind of experiment: Type II collagen arthritis model in apes, intraarticular administration. In kind it is in vivo, apes (macaque). The note with it: for effective ratio: NF-κB decoy 10 mg/joint at two-week intervals, type II collagen articulitis model in apes; for change of the joints on X-ray photographs (synovial inflammation, joint swelling, joint cartilage, osteoclasis), FIG. 1: simian collagen arthritis model, radiograph.

The next data set concerns osteoarthritis rat model. As to the kind of experiment: Osteoarthritis model using rats, intraarticular administration, joint section slides (FIG. 2). The conditions noted are these: listed as NF-κB decoys.

With “5′-CATGTCGTCACTGCGCTCAT-3′ (SEQ ID NO: 7); and 5′-ATGAGCGCAGTGACGACATG-3′ (SEQ ID NO: 8) (listed as DNA, chemistry not given here) [scrambled decoy, reference compound]”, in data set [1], the effective ratio was 1/4 and the “change of the joints on X-ray photographs (synovial inflammation, joint swelling, joint cartilage, osteoclasis), FIG. 1” value (from here on “change of the joints”) is “no effects”. Besides, in data set [1] (listed as scrambled decoys), the “change of the joints” value is reported as “No effects”.
For the substance “5′-CCTTGAAGGGATTTCCCTCC-3′ (SEQ ID NO: 1) (chemistry not given here) [NF-κB decoy, NF-κB decoy oligonucleotide (AnGes MG)]”, the “effect on joint (section slide photographs), FIG. 2” value in the data set on osteoarthritis rat model (administration of 10 mg of decoy) is listed as “significant improvement; also recorded: significant effects”; in the data set with osteoarthritis rat model (administration of 30 mg of decoy), “eliminated the joint inflammation; also recorded: destroyed the articulitis”. In addition, the “effect compared with that of steroid, FIG. 2” value in the data set on osteoarthritis rat model (decoy 10 mg and 30 mg versus steroid) is listed as “exceeded that of steroids; also recorded: beyond those attained by the steroid”. In addition, in data set [1], the effective ratio is 3/4. Also, the “change of the joints” value in data set [1] (listed as decoy of the present invention) is recorded as “significant improvements”; in data set [1] (listed as decoys of the present invention), “significant improvement”.
